Assay results as given in patent publication US12577245B2, “Sulfonyl benzamide derivatives as Bcl-2 inhibitors” (ASCENTAGE PHARMA (SUZHOU) CO., LTD., priority 2021, dated 2026).
Where two headings read alike, the source gives them in different places.

Columns and labels:
MV-4-11 cells = test: CCK-8 cell viability assay in MV-4-11 cells; assay type: cell-based; details: Homo sapiens, MV4-11, 72 h, 10% FBS, 3 days
Description: MV-4-11 cells were obtained from University of Michigan. Cells were maintained in the RPMI-1640 medium with 10% FBS and 1% P/S at 37° C. and an atmosphere of 5% CO2.
• The effect of representative Compounds of the Disclosure on cell viability was determined using Cell Counting Kit-8 (CCK-8) assay (Shanghai Life iLab Biotech) according to the manufacturer's instructions. Each tested compound was serially diluted in culture medium, and 100 μL of the compound dilution was added to the corresponding well of the cell plate. 100 μL of MV-4-11 cell suspension (20000 cells/well) in culture medium were seeded into 96-well plates. The cells were incubated at 37° C. in an atmosphere of 5% CO2 for 3 days. At the end of 3 days, 20 μL of CCK-8 solution was added to each well of the plate and incubated for 1-4 hours. The plates were read at 450 nm on the Biotek plate reader. The readings were normalized to the vehicle cells, and the IC50 was calculated using GraphPad Prism 8 software.

RS4; 11Bcl-2-G101V cells = test: CellTiter-Glo (CTG) cell viability assay in RS4;11-Bcl-2-G101V cells; assay type: cell-based; details: 72 h, 10% FBS, 3 days
Description: RS4; 11Bcl-2-G101V, RS4; 11Bcl-2-D103E, RS4; 11Bcl-2-V156D and RS4; 11Bcl-2-G101V-D103E cells were obtained from Cobioer Biosciences. Cells were maintained in the RPMI-1640 medium with 10% FBS, 1% P/S and puromycin (1 μg/mL) at 37° C. and an atmosphere of 5% CO2.
• The effect of representative Compounds of the Disclosure on cell viability was determined using CellTiter-Glo® (CTG) luminescent cell viability assay (Promega, USA) according to the manufacturer's instructions. 95 μL of cell suspension (10000 cells/well) in culture medium were seeded into 96-well plates and cultured 4 hours. Each tested compound was serially diluted in blank culture medium, and 5 μL of the compound dilution was added to the corresponding well of the cell plate. After the addition of the tested compound, the cells were incubated at 37° C. in an atmosphere of 5% CO2 for 3 days. At the end of 3 days, 30 μL of CTG solution was added to each well of the plate and mix contents for 2 minutes on an orbital shaker. Allow the plate to incubate at room temperature for 15 mins to stabilize signal and record RLU on the Biotek plate reader. The readings were normalized to the vehicle cells, and the IC50 was calculated using GraphPad Prism 8 software.

Bcl-2 WT = Bcl-2 WT (Homo sapiens, UniProt P10415); test: Bcl-2 WT inhibition, fluorescence polarization (Flu-BIM tracer) binding assay
[1] = FP, 20 nM Bcl2, 5 nM Flu-BIM, 1 h incubation, read-out: Bcl-2 w.t. (FP)

Chain of Bcl-2 WT (P10415 whole entry): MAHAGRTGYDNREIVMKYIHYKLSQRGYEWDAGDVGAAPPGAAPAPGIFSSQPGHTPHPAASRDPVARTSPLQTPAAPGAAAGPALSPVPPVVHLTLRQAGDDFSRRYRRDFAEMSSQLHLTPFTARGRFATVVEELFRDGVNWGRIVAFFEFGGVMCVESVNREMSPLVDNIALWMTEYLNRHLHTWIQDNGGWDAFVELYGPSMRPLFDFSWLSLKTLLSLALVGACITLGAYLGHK

Compound | IC50 (MV-4-11 cells) | IC50 (RS4; 11Bcl-2-G101V cells) | IC50 (Bcl-2 WT; [1]) | IC50 (Bcl-2 WT)
Cc1ccc(C2=C(CN3CCN(c4ccc(C(=O)NS(=O)(=O)c5ccc(NCC6CCOCC6)c([N+](=O)[O-])c5)c(Oc5cnc6[nH]ccc6c5)c4)CC3)CCC(C)(C)C2)s1 [Example 6, 2-((1H-pyrrolo[2,3-b]pyridin-5-yl)oxy)-4-(4-((4,4-dimethyl-2-(5-methylthiophen-2-yl)cyclohex-1-en-1-yl)methyl)piperazin-1-yl)-N-((3-nitro-4-(((tetrahydro-2H-pyran-4-yl)methyl)amino)phenyl)sulfonyl)benzamide] | 66 nM | 3940 nM | 16.2 nM | –
CC(C)c1csc(C2=C(CN3CCN(c4ccc(C(=O)NS(=O)(=O)c5ccc(NCC6CCOCC6)c([N+](=O)[O-])c5)c(Oc5cnc6[nH]ccc6c5)c4)CC3)CCC(C)(C)C2)c1 [Example 8, 2-((1H-pyrrolo[2,3-b]pyridin-5-yl)oxy)-4-(4-((2-(4-isopropylthiophen-2-yl)-4,4-dimethylcyclohex-1-en-1-yl)methyl)piperazin-1-yl)-N-((3-nitro-4-(((tetrahydro-2H-pyran-4-yl)methyl)amino)phenyl)sulfonyl)benzamide] | 21 nM | 1440 nM | 17.7 nM | –
CC(C)c1csc(C2=C(CN3CCN(c4ccc(C(=O)NS(=O)(=O)c5ccc(NC[C@H]6COCCO6)c([N+](=O)[O-])c5)c(Oc5cnc6[nH]ccc6c5)c4)CC3)CCC(C)(C)C2)c1 [Example 10, (S)—N-((4-(((1,4-dioxan-2-yl)methyl)amino)-3-nitrophenyl)sulfonyl)-2-((1H-pyrrolo[2,3-b]pyridin-5-yl)oxy)-4-(4-((2-(4-isopropylthiophen-2-yl)-4,4-dimethylcyclohex-1-en-1-yl)methyl)piperazin-1-yl)benzamide] | 16 nM | 1040 nM | 20.3 nM | –
CC(C)c1sccc1C1=C(CN2CCN(c3ccc(C(=O)NS(=O)(=O)c4ccc(NCC5CCOCC5)c([N+](=O)[O-])c4)c(Oc4cnc5[nH]ccc5c4)c3)CC2)CCC(C)(C)C1 [Example 11, 2-((1H-pyrrolo[2,3-b]pyridin-5-yl)oxy)-4-(4-((2-(2-isopropylthiophen-3-yl)-4,4-dimethylcyclohex-1-en-1-yl)-methyl)piperazin-1-yl)-N-((3-nitro-4-(((tetrahydro-2H-pyran-4-yl)methyl)amino)-phenyl)sulfonyl)benzamide] | 54 nM | 2360 nM | 20.9 nM | –
CC1(C)CCC(CN2CCN(c3ccc(C(=O)NS(=O)(=O)c4ccc(NC[C@H]5COCCO5)c([N+](=O)[O-])c4)c(Oc4cnc5[nH]ccc5c4)c3)CC2)=C(c2cc3c(s2)CCN(c2ccc(F)cc2)C3)C1 [Example 15, (S)—N-((4-(((1,4-dioxan-2-yl)methyl)amino)-3-nitrophenyl)sulfonyl)-2-((1H-pyrrolo[2,3-b]pyridin-5-yl)oxy)-4-(4-((2-(5-(4-fluorophenyl)-4,5,6,7-tetrahydrothieno[3,2-c]pyridin-2-yl)-4,4-dimethylcyclohex-1-en-1-yl)methyl)piperazin-1-yl)benzamide] | 466 nM | 8810 nM | 27.6 nM | –
CC1(C)CCC(CN2CCN(c3ccc(C(=O)NS(=O)(=O)c4ccc(NC[C@H]5CC[C@](C)(O)CC5)c([N+](=O)[O-])c4)c(Oc4cnc5[nH]ccc5c4)c3)CC2)=C(c2cc3c(s2)CCN(c2ccc(F)cc2)C3)C1 [Example 16, 2-((1H-pyrrolo[2,3-b]pyridin-5-yl)oxy)-4-(4-((2-(5-(4-fluorophenyl)-4,5,6,7-tetrahydrothieno[3,2-c]pyridin-2-yl)-4,4-dimethylcyclohex-1-en-1-yl)methyl)piperazin-1-yl)-N-((4-((((1r,4r)-4-hydroxy-4-methylcyclohexyl)methyl)amino)-3-nitrophenyl)sulfonyl)benzamide] | 445 nM | 5630 nM | 42 nM | –
CC1(C)CCC(CN2CCN(c3ccc(C(=O)NS(=O)(=O)c4ccc(NC[C@H]5COCCO5)c([N+](=O)[O-])c4)c(Oc4cnc5[nH]ccc5c4)c3)CC2)=C(c2cc(C(=O)Nc3ccccc3)cs2)C1 [Example 17, (S)-5-(2-((4-(4-(((4-(((1,4-dioxan-2-yl)methyl)amino)-3-nitrophenyl)sulfonyl)carbamoyl)-3-((1H-pyrrolo[2,3-b]pyridin-5-yl)oxy)phenyl)piperazin-1-yl)methyl)-5,5-dimethylcyclohex-1-en-1-yl)-N-phenylthiophene-3-carboxamide] | 262 nM | 4250 nM | – | 30.9 nM
CC1(C)CCC(CN2CCN(c3ccc(C(=O)NS(=O)(=O)c4ccc(NC[C@H]5COCCO5)c([N+](=O)[O-])c4)c(Oc4cnc5[nH]ccc5c4)c3)CC2)=C(c2cc(NC(=O)c3ccccc3)cs2)C1 [Example 18, (S)—N-((4-(((1,4-dioxan-2-yl)methyl)amino)-3-nitrophenyl)sulfonyl)-2-((1H-pyrrolo[2,3-b]pyridin-5-yl)oxy)-4-(4-((2-(4-benzamidothiophen-2-yl)-4,4-dimethylcyclohex-1-en-1-yl)methyl)piperazin-1-yl)benzamide] | 323 nM | 2040 nM | 37.5 nM | –
CC1(C)CCC(CN2CCN(c3ccc(C(=O)NS(=O)(=O)c4ccc(NC[C@H]5COCCO5)c([N+](=O)[O-])c4)c(Oc4cnc5[nH]ccc5c4)c3)CC2)=C(c2cc(Nc3ncccn3)cs2)C1 [Example 19, (S)—N-((4-(((1,4-dioxan-2-yl)methyl)amino)-3-nitrophenyl)sulfonyl)-2-((1H-pyrrolo[2,3-b]pyridin-5-yl)oxy)-4-(4-((4,4-dimethyl-2-(4-(pyrimidin-2-ylamino)thiophen-2-yl)cyclohex-1-en-1-yl)methyl)piperazin-1-yl)benzamide] | 138 nM | 980 nM | 24.6 nM | –
CC1(C)CCC(CN2CCN(c3ccc(C(=O)NS(=O)(=O)c4ccc(NCC5CCOCC5)c([N+](=O)[O-])c4)c(Oc4cnc5[nH]ccc5c4)c3)CC2)=C(c2csc(CN3CCOCC3)c2)C1 [Example 21, 2-((1H-pyrrolo[2,3-b]pyridin-5-yl)oxy)-4-(4-((4,4-dimethyl-2-(5-(morpholinomethyl)thiophen-3-yl)cyclohex-1-en-1-yl)methyl)piperazin-1-yl)-N-((3-nitro-4-(((tetrahydro-2H-pyran-4-yl)methyl)amino)phenyl)sulfonyl)benzamide] | 323 nM | 3790 nM | 27.1 nM | –
CC1(C)CCC(CN2CCN(c3ccc(C(=O)NS(=O)(=O)c4ccc(NC[C@H]5COCCO5)c([N+](=O)[O-])c4)c(Oc4cnc5[nH]ccc5c4)c3)CC2)=C(c2cc(CN3CCOCC3)cs2)C1 [Example 22, (S)—N-((4-(((1,4-dioxan-2-yl)methyl)amino)-3-nitrophenyl)sulfonyl)-2-((1H-pyrrolo[2,3-b]pyridin-5-yl)oxy)-4-(4-((4,4-dimethyl-2-(4-(morpholinomethyl)thiophen-2-yl)cyclohex-1-en-1-yl)methyl)piperazin-1-yl)benzamide] | 83 nM | 440 nM | 25.4 nM | –
CC1(C)CCC(CN2CCN(c3ccc(C(=O)NS(=O)(=O)c4ccc(NC[C@H]5CC[C@@](C)(O)CC5)c([N+](=O)[O-])c4)c(Oc4cnc5[nH]ccc5c4)c3)CC2)=C(c2cc(CN3CCOCC3)cs2)C1 [Example 23, 2-((1H-pyrrolo[2,3-b]pyridin-5-yl)oxy)-4-(4-((4,4-dimethyl-2-(4-(morpholinomethyl)thiophen-2-yl)cyclohex-1-en-1-yl)methyl)piperazin-1-yl)-N-((4-((((1s,4s)-4-hydroxy-4-methylcyclohexyl)methyl)amino)-3-nitrophenyl)sulfonyl)benzamide] | 180 nM | 930 nM | 15.7 nM | –
